In one assay the test system is HuO-3N1 (Osteosarcoma). Nature of the assay: Bliss excess, mean over the matrix (fraction); higher = more synergy. The method in brief:
(§1)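 Bliss excess equals the observed combination effect minus the expected value EA + EB − EA·EB, where EA and EB are the effects of each agent alone. Combination Emax is the second-highest inhibition within the matrix. Inhibition was scaled from CellTiter-Glo 2.0 luminescence, with 0 set by vehicle wells and 1 by blank wells, after 72 hours of two-drug dosing of cells plated in 1536-well plates.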

The test system of assay [1] is NKM-1 (Acute Myeloid Leukemia). The description is as above. In short, it runs like this:
as §1

The next assay relates to 786-0 (Kidney Carcinoma). Nature of the assay: combination Emax (second highest fraction inhibited in the dose matrix, 72 h); higher = more inhibition; extreme values may be limits of the assay. The method in brief: as §1
Assay [2] has as its system BALL-1 (B-Lymphoblastic Leukemia). The description is as above. In short, it runs like this: as §1
The next assay relates to CHL-1 (Melanoma). The description is as above. The method in brief:
as §1

Assay [3] has as its system COLO-684 (Endometrial Carcinoma). Described as above. In short, it runs like this:
as §1

Assay [4] has as its system EB-3 (Burkitt's Lymphoma). Described as above. The method in brief: as §1
The subject of assay [5] is FLO-1 (Esophageal Adenocarcinoma). The assay is described as above. The method in brief:
as §1

In assay [6] the test system is HTC-C3 (Thyroid Gland Carcinoma). The description is as above. The method in brief:
as §1

For assay [7], the system named is LOUCY (T-Lymphoblastic Leukemia). The description is as above. In short, it runs like this: as §1
The test system of assay [8] is NCI-H1563 (Lung Adenocarcinoma). The description is as above. In short, it runs like this:
as §1

Assay [9] has as its system NCI-H1623 (Lung Adenocarcinoma). The assay is described as above. The method in brief: as §1
In assay [10] the test system is NCI-H1755 (Lung Adenocarcinoma). Described as above. In short, it runs like this: as §1
Assay [11] relates to NKM-1 (Acute Myeloid Leukemia). The assay is described as above. The method in brief:
as §1

Assay [12] concerns OCI-AML5 (Acute Myeloid Leukemia). The assay is described as above. In short, it runs like this: as §1
Assay [13] has as its system OVTOKO (Ovarian Carcinoma). Described as above. In short, it runs like this:
as §1

Assay [14] relates to RL95-2 (Endometrial Carcinoma). The assay is described as above. The method in brief: as §1
Assay [15] has as its system RPMI-8866 (Chronic Myelogenous Leukemia). Described as above. The method in brief:
as §1

Assay [16] relates to SNU-175 (Colorectal Carcinoma). Described as above. The method in brief:
as §1

Experimental findings from the supplement of paper PMC11061612 are described below.

With `CS(=O)(=O)CCNCc1ccc(-c2ccc3ncnc(Nc4ccc(OCc5cccc(F)c5)c(Cl)c4)c3c2)o1` [Lapatinib] + C[C@@H](Oc1cc(-c2cnn(C3CCNCC3)c2)cnc1N)c1c(Cl)ccc(F)c1Cl [Crizotinib] (first compound max 10 µM, 7x7, partner max 10 µM), the Bliss excess is -0.0423 in the assay with HuO-3N1 (Osteosarcoma) and -0.0604 in assay [1]. Moreover, the “combination Emax” value in the assay with 786-0 (Kidney Carcinoma) is 0.992; in assay [2], 0.913; in the assay with CHL-1 (Melanoma), 0.757; in assay [3], 0.78; in assay [4] it was 0.909; in assay [5] it was 0.881. In addition, the “combination Emax” value in [6] came to 0.956; in assay [7], 0.822; in assay [8], 0.776; in [9], 0.987; in [10], 0.957; in assay [11], 0.965. Moreover, the “combination Emax” value in assay [12] amounted to 0.988; in assay [13] it was 0.902; in assay [14], 0.934; in [15], 0.884; in assay [16] it was 0.917.
With `CC(=O)c1c(C)c2cnc(Nc3ccc(N4CCNCC4)cn3)nc2n(C2CCCC2)c1=O` [Palbociclib] + CC1(C)CCC(CN2CCN(c3ccc(C(=O)NS(=O)(=O)c4ccc(NCC5CCOCC5)c([N+](=O)[O-])c4)c(Oc4cnc5[nH]ccc5c4)c3)CC2)=C(c2ccc(Cl)cc2)C1 [Venetoclax] (first compound max 10 µM, 7x7, partner max 1 µM), the Bliss excess in the assay with HuO-3N1 (Osteosarcoma) was -0.0312; in [1], 0.0548. The “combination Emax” value with 786-0 (Kidney Carcinoma) was found to be 0.411; in [2], 1; in the assay on CHL-1 (Melanoma), 0.0898; in assay [3], 0.193; in assay [4] it was 0.329; in [5], 0.495. The “combination Emax” value in assay [6] came out at 0.189; in assay [7] it was 1; in assay [8], 0.313; in assay [9], 0.248; in [10], 0.477; in assay [11], 0.946. Moreover, the “combination Emax” value in assay [12] was 0.837; in assay [13], 0.336; in assay [14] it was 0.226; in assay [15], 0.754; in assay [16], 0.562.
As to `CC(=O)c1c(C)c2cnc(Nc3ccc(N4CCNCC4)cn3)nc2n(C2CCCC2)c1=O` [Palbociclib] + Cc1c2c(nn1C)CSCc1cc(n(C)n1)CSc1cc(c3ccccc3c1)OCCCc1c(C(=O)O)n(C)c3c-2c(Cl)ccc13 [AZD5991] (first compound max 10 µM, 7x7, partner max 1 µM), the results for the Bliss excess (with HuO-3N1 (Osteosarcoma); in assay [1]) were -0.0972 and -0.0003, respectively. Moreover, the “combination Emax” value in the assay on 786-0 (Kidney Carcinoma) was 0.489; in [2], 0.777; with CHL-1 (Melanoma), 0.691; in assay [3], 0.321; in assay [4], 0.435; in [5], 0.603. Moreover, the “combination Emax” value was 0.248 in [6]; 0.553 in [7]; 0.609 in [8]; 0.818 in assay [9]; 0.524 in assay [10]; 0.994 in [11]. The “combination Emax” value came to 0.517 in [12]; 0.48 in assay [13]; 0.939 in assay [14]; 0.725 in assay [15]; 0.652 in [16].
In the case of `CC(=O)c1c(C)c2cnc(Nc3ccc(N4CCNCC4)cn3)nc2n(C2CCCC2)c1=O` [Palbociclib] + Cn1cnc2c(F)c(Nc3ccc(Br)cc3Cl)c(C(=O)NOCCO)cc21 [Selumetinib] (first compound max 10 µM, 7x7, partner max 10 µM), the values for the Bliss excess (with HuO-3N1 (Osteosarcoma); in assay [1]) were -0.0601 and -0.0194, respectively. Further, the “combination Emax” value stood at 0.357 in the assay on 786-0 (Kidney Carcinoma); 0.458 in assay [2]; 0.101 with CHL-1 (Melanoma); 0.153 in assay [3]; 0.374 in assay [4]; 0.531 in assay [5]. The “combination Emax” value in assay [6] amounted to 0.728; in assay [7], 0.278; in assay [8], 0.261; in assay [9], 0.52; in assay [10], 0.543; in [11], 0.944. Besides, the “combination Emax” value in assay [12] was 0.833; in [13], 0.259; in assay [14], 0.561; in [15], 0.806; in assay [16] it was 0.549.
With `C[C@@H](c1ccc2nccn2c1)n1nnc2ncc(-c3cnn(C)c3)nc21` [Savolitinib] + CC1(C)CCC(CN2CCN(c3ccc(C(=O)NS(=O)(=O)c4ccc(NCC5CCOCC5)c([N+](=O)[O-])c4)c(Oc4cnc5[nH]ccc5c4)c3)CC2)=C(c2ccc(Cl)cc2)C1 [Venetoclax] (first compound max 1 µM, 7x7, partner max 1 µM), the Bliss excess in the assay with HuO-3N1 (Osteosarcoma) is -0.0708; in assay [1] it was 0.0653. Moreover, the “combination Emax” value came out at 0.159 in the assay on 786-0 (Kidney Carcinoma); 1 in [2]; 0.118 with CHL-1 (Melanoma); 0.174 in [3]; 0.253 in [4]; 0.2 in [5]. Moreover, the “combination Emax” value was 0.127 in assay [6]; 0.976 in [7]; 0.18 in [8]; 0.173 in assay [9]; 0.101 in assay [10]; 0.545 in [11]. The “combination Emax” value was determined as 0.883 in assay [12]; 0.199 in [13]; 0.085 in [14]; 0.0738 in assay [15]; 0.119 in assay [16].
As to `C[C@@H](c1ccc2nccn2c1)n1nnc2ncc(-c3cnn(C)c3)nc21` [Savolitinib] + Cc1c2c(nn1C)CSCc1cc(n(C)n1)CSc1cc(c3ccccc3c1)OCCCc1c(C(=O)O)n(C)c3c-2c(Cl)ccc13 [AZD5991] (first compound max 1 µM, 7x7, partner max 1 µM), the Bliss excess in the assay with HuO-3N1 (Osteosarcoma) was -0.0631; in assay [1], -0.0069. The “combination Emax” value in the assay with 786-0 (Kidney Carcinoma) is 0.183; in assay [2], 0.612; in the assay on CHL-1 (Melanoma), 0.291; in assay [3] it was 0.174; in [4], 0.361; in [5] it was 0.294. The “combination Emax” value was 0.182 in [6]; 0.46 in assay [7]; 0.465 in [8]; 0.802 in assay [9]; 0.173 in assay [10]; 0.976 in assay [11]. The “combination Emax” value was 0.137 in assay [12]; 0.199 in assay [13]; 0.577 in [14]; 0.108 in [15]; 0.426 in assay [16].
Turning to `Cn1cnc2c(F)c(Nc3ccc(Br)cc3Cl)c(C(=O)NOCCO)cc21` [Selumetinib] + C=CCn1c(=O)c2cnc(Nc3ccc(N4CCN(C)CC4)cc3)nc2n1-c1cccc(C(C)(C)O)n1 [AZD1775] (first compound max 10 µM, partner max 1 µM), the Bliss excess with HuO-3N1 (Osteosarcoma) was -0.0972; in assay [1], -0.0478. The “combination Emax” value stood at 0.572 in the assay with 786-0 (Kidney Carcinoma); 1 in assay [2]; 0.572 with CHL-1 (Melanoma); 0.708 in assay [3]; 0.703 in [4]; 0.792 in assay [5]. Besides, the “combination Emax” value in assay [6] was found to be 0.691; in assay [7], 0.977; in [8] it was 0.303; in assay [9] it was 0.607; in [10] it was 0.776; in assay [11] it was 0.875. Further, the “combination Emax” value in assay [12] was found to be 0.944; in [13], 0.452; in [14], 0.587; in [15], 0.956; in assay [16] it was 0.718.
